Measured values as given in ChEMBL document CHEMBL1152500, “Molecular recognition in the P2Y(14) receptor: Probing the structurally permissive terminal sugar moiety of uridine-5'-diphosphoglucose” (Bioorg Med Chem, 2009).

These molecules were tested against T1, P2Y purinoceptor 14 (Homo sapiens, UniProt Q15391) (assay: Agonist activity at human P2Y14 receptor expressed in […] cells). Conditions: not given.
T1 sequence (Q15391 whole entry): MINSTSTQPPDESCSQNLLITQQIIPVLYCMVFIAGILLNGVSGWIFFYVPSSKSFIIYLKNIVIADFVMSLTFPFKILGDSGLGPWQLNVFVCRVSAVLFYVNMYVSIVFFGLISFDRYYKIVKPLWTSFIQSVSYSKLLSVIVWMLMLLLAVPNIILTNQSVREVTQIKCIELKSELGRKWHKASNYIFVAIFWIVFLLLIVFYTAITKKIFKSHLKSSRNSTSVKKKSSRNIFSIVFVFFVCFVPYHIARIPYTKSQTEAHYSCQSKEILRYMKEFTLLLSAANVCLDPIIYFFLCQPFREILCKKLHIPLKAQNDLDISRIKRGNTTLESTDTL
Assay type: functional, cell-based, COS-7

SMILES	EC50 [nM]
O=c1ccn([C@@H]2O[C@H](COP(=O)(O)OP(=O)(O)OC[C@H]3O[C@H](O)[C@H](O)[C@@H]3O)[C@@H](O)[C@H]2O)c(=O)[nH]1	238
O=c1ccn([C@@H]2O[C@H](COP(=O)(O)OP(=O)(O)OC[C@H]3O[C@H](O)[C@@H](O)[C@@H]3O)[C@@H](O)[C@H]2O)c(=O)[nH]1	460
O=c1[nH]c(=S)ccn1[C@@H]1O[C@H](COP(=O)(O)OP(=O)(O)O[C@H]2O[C@H](CO)[C@@H](O)[C@H](O)[C@H]2O)[C@@H](O)[C@H]1O	290
C[C@H]1O[C@H](OP(=O)(O)OP(=O)(O)OC[C@H]2O[C@@H](n3ccc(=O)[nH]c3=O)[C@H](O)[C@@H]2O)[C@H](O)[C@@H](O)[C@H]1O	562
O=c1ccn([C@@H]2O[C@H](COP(=O)(O)OP(=O)(O)O[C@H]3O[C@H](CO)[C@@H](F)[C@H](O)[C@H]3O)[C@@H](O)[C@H]2O)c(=O)[nH]1	567
O=c1ccn([C@@H]2O[C@H](COP(=O)(O)OP(=O)(O)OC[C@H]3O[C@H](O)[C@H](O)[C@@H](O)[C@@H]3O)[C@@H](O)[C@H]2O)c(=O)[nH]1	373
O=c1ccn([C@@H]2O[C@H](COP(=O)(O)OP(=O)(O)O[C@H]3O[C@H](CF)[C@@H](O)[C@H](O)[C@H]3O)[C@@H](O)[C@H]2O)c(=O)[nH]1	905
CC(C)(C)OC(=O)NCCNC(=O)[C@H]1O[C@H](OP(=O)(O)OP(=O)(O)OC[C@H]2O[C@@H](n3ccc(=O)[nH]c3=O)[C@H](O)[C@@H]2O)[C@H](O)[C@@H](O)[C@@H]1O	951
CC(=O)NCCNC(=O)[C@H]1O[C@H](OP(=O)(O)OP(=O)(O)OC[C@H]2O[C@@H](n3ccc(=O)[nH]c3=O)[C@H](O)[C@@H]2O)[C@H](O)[C@@H](O)[C@@H]1O	496
O=c1ccn([C@@H]2O[C@H](COP(=O)(O)OP(=O)(O)OC[C@H]3O[C@H](O)[C@@H](O)[C@@H](O)[C@@H]3O)[C@@H](O)[C@H]2O)c(=O)[nH]1	658
O=c1ccn([C@@H]2O[C@H](COP(=O)(O)OP(=O)(O)O[C@@H]3[C@H](O)[C@H](O)[C@@H](O)[C@H](O)[C@H]3O)[C@@H](O)[C@H]2O)c(=O)[nH]1	1880
O=c1ccn([C@@H]2O[C@H](COP(=O)(O)OP(=O)(O)OC[C@H]3O[C@](O)(CO)[C@@H](O)[C@@H]3O)[C@@H](O)[C@H]2O)c(=O)[nH]1	323
O=c1ccn([C@@H]2O[C@H](COP(=O)(O)OP(=O)(O)O[C@H]3O[C@H](CO)[C@@H](O)[C@H](F)[C@H]3O)[C@@H](O)[C@H]2O)c(=O)[nH]1	361
O=c1ccn([C@@H]2O[C@H](COP(=O)(O)OP(=O)(O)O[C@H]3O[C@H](CO)[C@@H](O)[C@H](O)[C@H]3F)[C@@H](O)[C@H]2O)c(=O)[nH]1	2500

The molecules below were run against T2, P2Y purinoceptor 14 (Homo sapiens) (UniProt Q15391) (assay: Agonist activity at human P2Y14 receptor expressed in […] cells at 10 uM). Conditions: COS-7.
T2 sequence (whole entry): T1 sequence (Q15391 whole entry)
Assay type: functional, cell-based

SMILES	Efficacy [%]
O=c1ccn([C@@H]2C[C@H](COP(=O)(O)OP(=O)(O)O[C@H]3O[C@H](CO)[C@@H](O)[C@H](O)[C@H]3O)[C@@H](O)[C@H]2O)c(=O)[nH]1	< 20
CO/N=c1/ccn([C@@H]2O[C@H](COP(=O)(O)OP(=O)(O)O[C@H]3O[C@H](CO)[C@@H](O)[C@H](O)[C@H]3O)[C@@H](O)[C@H]2O)c(=O)[nH]1	< 50
CC(=O)N[C@@H]1[C@@H](O)[C@H](O)[C@@H](CO)O[C@@H]1CP(=O)(O)OP(=O)(O)OC[C@H]1O[C@@H](n2ccc(=O)[nH]c2=O)[C@H](O)[C@@H]1O	< 50
O=c1ccn([C@@H]2O[C@H](COP(=O)(O)OP(=O)(O)OC[C@H]3O[C@H](O)C[C@@H](O)[C@@H]3O)[C@@H](O)[C@H]2O)c(=O)[nH]1	< 50
